According to US9493466B2, “Treatment of cancer with TOR kinase inhibitors” (Signal Pharmaceuticals, LLC, priority 2011, dated 2016):

Assays:
U87MG tumors = assay: Ki67 immunohistochemistry in U87MG tumors; assay type: in vivo, mice; details: 5 mg/kg BID oral for 4 days; p<0.001
Protocol: Mechanism of action studies. To determine the mechanism of action of Compound 1, mice bearing U87MG tumors of approximately 500 mm^3 were dosed orally with vehicle or Compound 1 at 5 mg/kg BID for 4 days. The positive control, rapamycin, was dosed at 4 mg/kg Q3D for 4 days. Two hours after the 7th dose of Compound 1 on day 4, animals were euthanized and tumors were dissected out and snap frozen in liquid nitrogen. In the rapamycin-treated group tumors were collected at 2 hour after the 2nd dose on day 4. The tumors were processed for immunohistochemistry (IHC) or TUNEL.
Immunohistochemistry. Five to ten micron (5-10 μm) thick cryostat sections were used for IHC. The expression of the cell proliferation marker Ki67 was evaluated by IHC using anti-Ki67 antibody. […] The sections were visualized with a Nikon E800 microscope equipped with fluorescence detection equipment and a digital camera attached to a computer.
Quantitation of Immunohistochemistry. The tissues sections processed for apoptosis or immunostained for proliferating cells (Ki67) or blood vessels were quantitated using Metamorph software. Using 20× objective, 5 different fields from each section, 2-4 sections from each tumor, and 3-4 tumors from each treatment group or control were used for quantitation. The area of interest was expressed as the percent threshold area of the total area. […]

NCI-H929 tumor = assay: Human plasma cell myeloma (NCI-H929) study; assay type: in vivo, SCID mice; details: FIG. 19
From the text: Human Plasma Cell Myeloma (NCI-H929) Study. Female SCID mice (Fox Chase SCID®, CB17/Icr-Prkce^scid, Charles River) were 8 weeks old at the beginning of the study. The animals were fed ad libitum water (reverse osmosis, 1 ppm Cl) and NIH 31 Modified and Irradiated Lab Diet® consisting of 18.0% crude protein, 5.0% crude fat, and 5.0% crude fiber. […]
The NCI-H929 tumor cells used for implantation were harvested during log phase growth and resuspended at a concentration of 5×10^7 cells/mL in 50% Matrigel (BD Biosciences). […] Tumor size, in mm^3, was calculated from: […]
Compound 1 was administered via oral gavage (p.o.) once daily for twenty-eight days (qd×28). Treatment efficacy was determined from the calculated tumor volumes on Day 12. MTV(n), the median tumor volume for the number of animals, n, evaluable on the day of analysis, was determined for each group. Percent tumor growth inhibition (% TGI) was defined as the difference between the MTV of the control group and the MTV of the drug-treated group, expressed as a percentage of the MTV of the control group: […]
Each animal was to be euthanized when its neoplasm reached the endpoint volume (2000 mm^3). For each animal whose tumor reached the endpoint volume, the time to endpoint (TTE) was calculated by the following equation: […]

## CO[C@H]1CC[C@H](N2C(=O)CNc3ncc(-c4ccc(C(C)(C)O)nc4)nc32)CC1 [Compound 1, 7-(6-(2-hydroxypropan-2-yl)pyridin-3-yl)-1-((1r,4r)-4-methoxycyclohexyl)-3,4-dihydropyrazino-[2,3-b]pyrazin-2(1H)-one]
U87MG tumors
  reduction in the number of proliferating cells (Ki67) compared with vehicle: 59%
NCI-H929 tumor; 3 mg/kg and 10 mg/kg p.o. qd×28
  tumor growth delay: Significant tumor growth delay
NCI-H929 tumor; 10 mg/kg p.o. qd×28
  tumor growth inhibition: Significant tumor growth inhibition
